Assay: metabolic stability in mouse liver S9 fractions
Format: in vitro ADME
Details: pooled liver S9 fraction, 1 μM compound, 1 mg/mL S9, phase I and II cofactors; for half-life at 1 μM: read-out: metabolic stability in mouse liver S9 fractions t1/2
Description: For the evaluation of combined phase I and phase II metabolic stability, the compound (1 μM) was incubated with 1 mg/mL pooled mouse liver S9 fraction (Xenotech, Kansas City, USA), 2 mM nicotinamide adenine dinucleotide phosphate hydrogen (NADPH), 1 mM UDPGA, 10 mM MgCl2, 5 mM glutathione (GSH), and 0.1 mM 3′-phosphoadenosine 5′-phosphosulfate (PAPS) at 37 °C for 120 min. The metabolic stability of testosterone, verapamil, and ketoconazole were determined in parallel to confirm the enzymatic activity of mouse S9 fractions. The incubation was stopped after defined time points by precipitation of aliquots of S9 enzymes with 2 volumes of cold acetonitrile containing internal standard (150 nM diphenhydramine). Samples were stored on ice until the end of the incubation and the precipitated protein was removed by centrifugation (15 min, 4 °C, 4000g). Concentration of the remaining test compound at the different time points was analyzed by HPLC–MS/MS (TSQ Quantum Access Max, Thermo Fisher, Dreieich, Germany) and used to determine half-life (t1/2).

SMILES	microsomal CLint at 1 μM	half-life at 1 μM
O=C(NC[C@H](OCc1ccc(C#Cc2ccc(CN3CCOCC3)cc2)cc1)C(=O)NO)c1cc[nH]n1 [(S)-13l]	10.9 ± 0.9 µL/min/mg	> 60 min
O=C(NC[C@H](OCc1ccc(C#Cc2ccc(CN3CCOCC3)cc2)cc1)C(=O)NO)c1ccc2[nH]ccc2c1 [(S)-13j]	27.6 ± 2.7 µL/min/mg	25.5 ± 2.7 min
O=C(NC[C@H](OCc1ccc(C#Cc2ccc(CN3CCOCC3)cc2)cc1)C(=O)NO)c1c[nH]c2ccccc12 [(S)-13h]	~45 µL/min/mg	15.5 ± 1 min
